According to patent publication US11659837B2, “Mixtures comprising an urease inhibitor (UI) and a nitrification inhibitor such as 2-(3,4-dimethyl-1H-pyrazol-1-yl)succinic acid (DMPSA) or 3,4-dimethyl pyrazolium glycolate (DMPG)” (BASF SE, priority 2017, dated 2023):

Tested on: N2O emissions from soils
Assay: Greenhouse experiment: detection of nitrous oxide (N2O) losses from pots
Details: urea
Source text: Detection of Nitrous Oxide Losses:
On application day (DATO), each pot (with/without plants or algae) was set onto a plant saucer designed with an inner compartment for the pot and an outer ring that is filled with water. At time 0, water holding capacity of the soil was set to 60-70% prior to application with/without fertilizer and a.i. Subsequently, a gas sampling chamber was placed over the plant saucer such that the rim fit into the ring filled with water to create a gas-tight chamber and 25 cc air from the chamber were drawn into a syringe and immediately emptied in to a Vacutainer (Labco, 12 ml volume). This equals the Time 0 measurement for each pot. The same procedure was performed with all pots in the experiment. After two hour incubation time, again 25 cc air samples were taken from the gas chambers and emptied into Vacutainers as described above. Plants were then returned to their positions in the climate chamber. The procedure was repeated at precisely the same time of day for up to 19 days.
Samples were analyzed in a Shimadzu 2014 GC equipped with an ECD system.

[1] = DAT 1, NI 0.20, UI 0.01 where present
[2] = DAT 1, NI 0.35, UI 0.01 where present
[3] = DAT 1, NI 0.50, UI 0.01 where present
[4] = DAT 2, NI 0.20, UI 0.01 where present
[5] = DAT 2, NI 0.35, UI 0.01 where present
[6] = DAT 2, NI 0.50, UI 0.01 where present
[7] = DAT 3, NI 0.20, UI 0.01 where present
[8] = DAT 3, NI 0.35, UI 0.01 where present
[9] = DAT 3, NI 0.50, UI 0.01 where present
[10] = DAT 4, NI 0.20, UI 0.01 where present
[11] = DAT 4, NI 0.35, UI 0.01 where present
[12] = DAT 4, NI 0.50, UI 0.01 where present
[13] = DAT 5, NI 0.20, UI 0.01 where present
[14] = DAT 5, NI 0.35, UI 0.01 where present
[15] = DAT 5, NI 0.50, UI 0.01 where present
[16] = DAT 6, NI 0.20, UI 0.01 where present
[17] = DAT 6, NI 0.35, UI 0.01 where present
[18] = DAT 6, NI 0.50, UI 0.01 where present
[19] = DAT 7, NI 0.20, UI 0.01 where present
[20] = DAT 7, NI 0.35, UI 0.01 where present
[21] = DAT 7, NI 0.50, UI 0.01 where present
[22] = DAT 8, NI 0.20, UI 0.01 where present
[23] = DAT 8, NI 0.35, UI 0.01 where present
[24] = DAT 8, NI 0.50, UI 0.01 where present
[25] = DAT 10, NI 0.20, UI 0.01 where present
[26] = DAT 10, NI 0.35, UI 0.01 where present
[27] = DAT 10, NI 0.50, UI 0.01 where present
[28] = DAT 12, NI 0.20, UI 0.01 where present
[29] = DAT 12, NI 0.35, UI 0.01 where present
[30] = DAT 12, NI 0.50, UI 0.01 where present
[31] = DAT 16, NI 0.20, UI 0.01 where present
[32] = DAT 16, NI 0.35, UI 0.01 where present
[33] = DAT 16, NI 0.50, UI 0.01 where present
[34] = DAT 19, NI 0.20, UI 0.01 where present
[35] = DAT 19, NI 0.35, UI 0.01 where present
[36] = DAT 19, NI 0.50, UI 0.01 where present

SMILES: Cc1cn(C(CC(=O)[O-])C(=O)[O-])nc1C.[K+].[K+] (stereo not shown) [DMPSA-K2]
- Nitrous oxide (N2O) emissions, cumulated values [1]: 8.97 μg N2O—N/m2*h
- Nitrous oxide (N2O) emissions, cumulated values [2]: 7.74 μg N2O—N/m2*h
- Nitrous oxide (N2O) emissions, cumulated values [3]: 7.62 μg N2O—N/m2*h
- Nitrous oxide (N2O) emissions, cumulated values [4]: 19.30 μg N2O—N/m2*h
- Nitrous oxide (N2O) emissions, cumulated values [5]: 18.94 μg N2O—N/m2*h
- Nitrous oxide (N2O) emissions, cumulated values [6]: 20.18 μg N2O—N/m2*h
- Nitrous oxide (N2O) emissions, cumulated values [7]: 29.75 μg N2O—N/m2*h
- Nitrous oxide (N2O) emissions, cumulated values [8]: 29.26 μg N2O—N/m2*h
- Nitrous oxide (N2O) emissions, cumulated values [9]: 30.31 μg N2O—N/m2*h
- Nitrous oxide (N2O) emissions, cumulated values [10]: 37.16 μg N2O—N/m2*h
- Nitrous oxide (N2O) emissions, cumulated values [11]: 37.09 μg N2O—N/m2*h
- Nitrous oxide (N2O) emissions, cumulated values [12]: 37.69 μg N2O—N/m2*h
- Nitrous oxide (N2O) emissions, cumulated values [13]: 45.99 μg N2O—N/m2*h
- Nitrous oxide (N2O) emissions, cumulated values [14]: 46.55 μg N2O—N/m2*h
- Nitrous oxide (N2O) emissions, cumulated values [15]: 46.97 μg N2O—N/m2*h
- Nitrous oxide (N2O) emissions, cumulated values [16]: 52.71 μg N2O—N/m2*h
- Nitrous oxide (N2O) emissions, cumulated values [17]: 52.67 μg N2O—N/m2*h
- Nitrous oxide (N2O) emissions, cumulated values [18]: 52.44 μg N2O—N/m2*h
- Nitrous oxide (N2O) emissions, cumulated values [19]: 60.65 μg N2O—N/m2*h
- Nitrous oxide (N2O) emissions, cumulated values [20]: 60.12 μg N2O—N/m2*h
- Nitrous oxide (N2O) emissions, cumulated values [21]: 62.57 μg N2O—N/m2*h
- Nitrous oxide (N2O) emissions, cumulated values [22]: 68.52 μg N2O—N/m2*h
- Nitrous oxide (N2O) emissions, cumulated values [23]: 70.52 μg N2O—N/m2*h
- Nitrous oxide (N2O) emissions, cumulated values [24]: 72.03 μg N2O—N/m2*h
- Nitrous oxide (N2O) emissions, cumulated values [25]: 77.59 μg N2O—N/m2*h
- Nitrous oxide (N2O) emissions, cumulated values [26]: 77.77 μg N2O—N/m2*h
- Nitrous oxide (N2O) emissions, cumulated values [27]: 79.00 μg N2O—N/m2*h
- Nitrous oxide (N2O) emissions, cumulated values [28]: 85.15 μg N2O—N/m2*h
- Nitrous oxide (N2O) emissions, cumulated values [29]: 81.35 μg N2O—N/m2*h
- Nitrous oxide (N2O) emissions, cumulated values [30]: 82.43 μg N2O—N/m2*h
- Nitrous oxide (N2O) emissions, cumulated values [31]: 87.97 μg N2O—N/m2*h
- Nitrous oxide (N2O) emissions, cumulated values [32]: 84.12 μg N2O—N/m2*h
- Nitrous oxide (N2O) emissions, cumulated values [33]: 84.05 μg N2O—N/m2*h
- Nitrous oxide (N2O) emissions, cumulated values [34]: 88.83 μg N2O—N/m2*h
- Nitrous oxide (N2O) emissions, cumulated values [35]: 84.94 μg N2O—N/m2*h
- Nitrous oxide (N2O) emissions, cumulated values [36]: 84.28 μg N2O—N/m2*h
- Nitrous oxide (N2O) emissions, % appl. N (NI 0.20, UI 0.01 where present): 0.381 % appl. N
- Nitrous oxide (N2O) emissions, % appl. N (NI 0.35, UI 0.01 where present): 0.364 % appl. N
- Nitrous oxide (N2O) emissions, % appl. N (NI 0.50, UI 0.01 where present): 0.361 % appl. N

SMILES: Cc1cn(C(CC(=O)O)C(=O)O)nc1C.N.N (stereo not shown) [DMPSA-di-NH4]
- Nitrous oxide (N2O) emissions, cumulated values [1]: 5.71 μg N2O—N/m2*h
- Nitrous oxide (N2O) emissions, cumulated values [2]: 6.74 μg N2O—N/m2*h
- Nitrous oxide (N2O) emissions, cumulated values [3]: 7.89 μg N2O—N/m2*h
- Nitrous oxide (N2O) emissions, cumulated values [4]: 17.84 μg N2O—N/m2*h
- Nitrous oxide (N2O) emissions, cumulated values [5]: 22.08 μg N2O—N/m2*h
- Nitrous oxide (N2O) emissions, cumulated values [6]: 16.36 μg N2O—N/m2*h
- Nitrous oxide (N2O) emissions, cumulated values [7]: 28.36 μg N2O—N/m2*h
- Nitrous oxide (N2O) emissions, cumulated values [8]: 30.26 μg N2O—N/m2*h
- Nitrous oxide (N2O) emissions, cumulated values [9]: 23.64 μg N2O—N/m2*h
- Nitrous oxide (N2O) emissions, cumulated values [10]: 40.61 μg N2O—N/m2*h
- Nitrous oxide (N2O) emissions, cumulated values [11]: 39.25 μg N2O—N/m2*h
- Nitrous oxide (N2O) emissions, cumulated values [12]: 31.59 μg N2O—N/m2*h
- Nitrous oxide (N2O) emissions, cumulated values [13]: 51.02 μg N2O—N/m2*h
- Nitrous oxide (N2O) emissions, cumulated values [14]: 47.97 μg N2O—N/m2*h
- Nitrous oxide (N2O) emissions, cumulated values [15]: 38.95 μg N2O—N/m2*h
- Nitrous oxide (N2O) emissions, cumulated values [16]: 57.34 μg N2O—N/m2*h
- Nitrous oxide (N2O) emissions, cumulated values [17]: 54.68 μg N2O—N/m2*h
- Nitrous oxide (N2O) emissions, cumulated values [18]: 45.83 μg N2O—N/m2*h
- Nitrous oxide (N2O) emissions, cumulated values [19]: 66.12 μg N2O—N/m2*h
- Nitrous oxide (N2O) emissions, cumulated values [20]: 60.89 μg N2O—N/m2*h
- Nitrous oxide (N2O) emissions, cumulated values [21]: 53.03 μg N2O—N/m2*h
- Nitrous oxide (N2O) emissions, cumulated values [22]: 76.79 μg N2O—N/m2*h
- Nitrous oxide (N2O) emissions, cumulated values [23]: 66.75 μg N2O—N/m2*h
- Nitrous oxide (N2O) emissions, cumulated values [24]: 62.02 μg N2O—N/m2*h
- Nitrous oxide (N2O) emissions, cumulated values [25]: 86.54 μg N2O—N/m2*h
- Nitrous oxide (N2O) emissions, cumulated values [26]: 72.23 μg N2O—N/m2*h
- Nitrous oxide (N2O) emissions, cumulated values [27]: 67.48 μg N2O—N/m2*h
- Nitrous oxide (N2O) emissions, cumulated values [28]: 92.81 μg N2O—N/m2*h
- Nitrous oxide (N2O) emissions, cumulated values [29]: 76.32 μg N2O—N/m2*h
- Nitrous oxide (N2O) emissions, cumulated values [30]: 72.35 μg N2O—N/m2*h
- Nitrous oxide (N2O) emissions, cumulated values [31]: 93.10 μg N2O—N/m2*h
- Nitrous oxide (N2O) emissions, cumulated values [32]: 78.21 μg N2O—N/m2*h
- Nitrous oxide (N2O) emissions, cumulated values [33]: 74.66 μg N2O—N/m2*h
- Nitrous oxide (N2O) emissions, cumulated values [34]: 93.49 μg N2O—N/m2*h
- Nitrous oxide (N2O) emissions, cumulated values [35]: 78.47 μg N2O—N/m2*h
- Nitrous oxide (N2O) emissions, cumulated values [36]: 75.03 μg N2O—N/m2*h
- Nitrous oxide (N2O) emissions, % appl. N (NI 0.20, UI 0.01 where present): 0.401 % appl. N
- Nitrous oxide (N2O) emissions, % appl. N (NI 0.35, UI 0.01 where present): 0.337 % appl. N
- Nitrous oxide (N2O) emissions, % appl. N (NI 0.50, UI 0.01 where present): 0.322 % appl. N

SMILES: CCCCNP(N)(N)=S [NBPT, N-(n-butyl)thiophosphoric acid triamide, reference compound]
- Nitrous oxide (N2O) emissions, cumulated values (DAT 1, no NI, UI 0.01): 9.77 μg N2O—N/m2*h
- Nitrous oxide (N2O) emissions, cumulated values (DAT 2, no NI, UI 0.01): 27.42 μg N2O—N/m2*h
- Nitrous oxide (N2O) emissions, cumulated values (DAT 3, no NI, UI 0.01): 40.07 μg N2O—N/m2*h
- Nitrous oxide (N2O) emissions, cumulated values (DAT 4, no NI, UI 0.01): 53.70 μg N2O—N/m2*h
- Nitrous oxide (N2O) emissions, cumulated values (DAT 5, no NI, UI 0.01): 68.86 μg N2O—N/m2*h
- Nitrous oxide (N2O) emissions, cumulated values (DAT 6, no NI, UI 0.01): 89.16 μg N2O—N/m2*h
- Nitrous oxide (N2O) emissions, cumulated values (DAT 7, no NI, UI 0.01): 109.04 μg N2O—N/m2*h
- Nitrous oxide (N2O) emissions, cumulated values (DAT 8, no NI, UI 0.01): 127.94 μg N2O—N/m2*h
- Nitrous oxide (N2O) emissions, cumulated values (DAT 10, no NI, UI 0.01): 133.95 μg N2O—N/m2*h
- Nitrous oxide (N2O) emissions, cumulated values (DAT 12, no NI, UI 0.01): 140.07 μg N2O—N/m2*h
- Nitrous oxide (N2O) emissions, cumulated values (DAT 16, no NI, UI 0.01): 143.31 μg N2O—N/m2*h
- Nitrous oxide (N2O) emissions, cumulated values (DAT 19, no NI, UI 0.01): 146.30 μg N2O—N/m2*h
- Nitrous oxide (N2O) emissions, % appl. N (no NI, UI 0.01): 0.628 % appl. N
